Measurements published in patent publication US20210087238A1, “CELL PENETRATING PEPTIDES AND RELATED COMPOSITIONS AND METHODS” (Phylogica Limited, priority 2017, published 2021).
Read-outs that look alike come from different tables or passages of the source. Where a SMILES comes first, the peptide text is derived from it. Where no end group is shown, it is not given here. [ ]: non-standard residue; d: D form.

Assays:
T47D cells [1] = experiment: Cell viability assay of FPP1.1_SpyT variants conjugated to SpyC_PAP, resazurin reduction; type: cell-based; settings: 48 h incubation, FIG. 5
Method: Cell viability assay on T47D cells of FPP1.1_SpyT peptide compared to retro-inverso (RI) and dimerised variants conjugated to the SpyCatcher_PAP (SpyC_PAP) mitochondriotoxic cargo. T47D cells were seeded at 6×10^3 cells per well and treated the following day with FPP-Toxic cargo conjugates. Following 48 h incubation cell viability was assessed by resazurin reduction potential.
(§1) With the exception of SpyC PAS proteins, conjugations were set up at a SpyCatcher:SpyTag ratio of 1:1.25, with a 40 μM final concentration for the SpyCatcher moiety. SpyC proteins and SpyTag peptides were incubated for 2 h at 22° C. with gentle mixing, and then left at 4° C. overnight. Conjugation efficiencies were analyzed on 4-16% SDS-PAGE gels stained with Gel Code Blue Reagent (Thermo Fisher Scientific). SpyC_PAS proteins were conjugated with SpyTag peptides at ratio 1:1.1, mixed and incubated at room temperature for 30 mins before being stored overnight at 4° C.
(§2) All assays followed manufacturer's instructions.

CHO-K1 cells [2] = settings: up to 50 μM; for cytotoxicity of peptides alone, cell viability: 24 h and 48 h incubation; for cytotoxicity of peptides alone, LDH release (membrane integrity): 2 h and 24 h incubation
Method: Cell viability effect on CHO-K1 cells of Phylomer™ CPPs and variants compared to the canonical CPPs TAT and Penetratin following 24 h (A) and 48 h (B) incubation with peptides. Cell viability was assessed by resazurin reduction potential. Membrane integrity of CHO-K1 cells were assessed by LDH release following 2 h (C) and 24 h (D) incubation with peptides. […] Results are representative of 3 independent experiments. Error bars represent standard deviation from the mean of triplicate samples.
(§3) Cells in were seeded at 2000-6000 cells/well, depending on cell line, in 96-well plates (PAP assays: CHO-K1, 3000 cells/well; peptide cytotoxicity assays: CHO-K1, 5000 cells/well; Bouganin assay: CHO-K1 and CHO-K1 EGFR, 2500 cells/well; ^DPMIα assays: T47D, 5000 cells/well; Omomyc assays: all cell lines, 5000 cells/well). In brief, adherent cells were allowed to attach for 24 h prior to addition of treatments whereas suspension cell lines were treated immediately following seeding. Following 2-48 h incubations with treatments, cell viability was measure by a variety of methods. Membrane integrity was assessed by the release of LDH into the media via the CytoTox-ONE reagent (Promega). Metabolic activity was measured either by resazurin reduction potential using PrestoBlue (LifeTech) or ATP activity using CellTitre-Glo (Promega). All assays followed manufacturer's instructions. IC50 values were calculated using Prism (version 7.0a, GraphPad).
When delivering therapeutics into a cell, it is critical that the delivery molecule itself is not cytotoxic. To assess innate cytotoxicity we tested the effects of FPPs alone on cell viability at 24 h (FIG. 6A) and 48 h (FIG. 6B) after addition of peptides. The effects of FPPs on membrane stability of cells was also assessed in a LDH enzymatic assay, measuring release of LDH from cells into surrounding media at 2 h (FIG. 6C) and 24 h (FIG. 6D) after treatment with peptides.

T47D cells [3] = settings: for IC50: 48 h; for delivery of DPMIα, comparison of 10 μM peptide treatments: FIG. 8B, one-way ANOVA; for effect on T47D cell viability of CPP-delivered DPMIα: 48 h incubation, FIG. 8A
Method: Cell viability was assessed by resazurin reduction potential after 48 h incubation with peptides. […] Results are representative of 3 independent experiments.
as §3
^DPMIα is a small peptide (SEQ ID NO:105), which when conjugated to cationic CPPs can internalize into cells, bind to MDM2 (acting as a dominant negative peptide) and lift p53 suppression causing indiscriminate cytotoxicity (Liu, supra).

CHO-K1 cells [4] = experiment: PAP cell viability assay: SpyC_PAP conjugated to CPP_SpyT, resazurin reduction; type: cell-based; settings: for cell death caused by SpyC-PAP conjugate: compared to TAT or Penetratin-delivered SpyC_PAP
Method: as §1, §2
SpyC-PAP/CPP-SpyT complex IC50s were ranked according to potency to determine impact of changes to primary CPP sequence. Sequence variations positively impacting on potency are retained for further optimization, whereas sequence variations deleterious to potency are excluded, thus establishing sequence activity relationships for the CPP peptide. SpyC_BLA/CPP-SpyT complex median cell fluorescence at 4 μM concentration was ranked according to intensity to determine impact of changes to primary CPP sequence. Sequence variations positively impacting on intensity were retained for further optimization, whereas sequence variations deleterious to intensity were excluded, thus establishing sequence activity relationships for the CPP peptide.
For the first readout of functional activity we chose the proapoptotic peptide PAP (SEQ ID NO:61; Ellerby et al 1999, Nat Med, 5, 1032-1038) as a functional cargo and expressed it recombinantly, fused to SpyCatcher (SEQ ID NO:83) (abbreviated as “SpyC_PAP” or “SpyC-PAP”; SEQ ID NO:62) to enable subsequent conjugation with synthetic CPP-SpyTag fusion proteins. Mammalian cells were incubated with SpyC_PAP-CPP protein conjugates, which induce apoptosis if successfully delivered into cells. […] As a representative member of the largest cluster of sequences from the screen, FPP1 was selected for additional optimization studies.

[5] = PAP assay, variant_SpyT/SpyC_PAP

## C[C@@H](O)[C@H](NC(=O)[C@H](CCCCN)NC(=O)[C@@H]1CCCN1C(=O)[C@H](CCCCN)NC(=O)[C@H](CCCCN)NC(=O)[C@@H]1CCCN1C(=O)[C@H](CCCCN)NC(=O)[C@@H]1CCCN1C(=O)[C@@H]1CCCN1C(=O)[C@H](CCC(N)=O)NC(=O)[C@H](CCCCN)NC(=O)[C@H](CCCCN)NC(=O)[C@H](CCCCN)NC(=O)[C@@H](N)CCCCN)C(=O)N[C@@H](CCC(N)=O)C(=O)N[C@@H](CCC(=O)O)C(=O)N[C@@H](CCCCN)C(=O)N[C@@H](CCCCN)C(=O)N[C@@H](CCCCN)C(=O)N[C@@H](CCCCN)C(=O)N[C@@H](CCC(N)=O)C(=O)N1CCC[C@H]1C(=O)N1CCC[C@H]1C(=O)N[C@@H](CCCCN)C(=O)N1CCC[C@H]1C(=O)N[C@@H](CCCCN)C(=O)N[C@@H](CCCNC(=N)N)C(=O)O [FPP1.1] (H-KKKKQPPKPKKPKTQEKKKKQPPKPKR-OH)
T47D cells [1]
  IC50: 8.7 µM
CHO-K1 cells [2]
  cytotoxicity of peptides alone, cell viability: lack of cytotoxicity

## CC[C@H](C)[C@H](NC(=O)[C@H](CCCCN)NC(=O)[C@@H](NC(=O)[C@H](CCC(N)=O)NC(=O)[C@@H](N)CCCNC(=N)N)[C@@H](C)CC)C(=O)N[C@@H](Cc1c[nH]c2ccccc12)C(=O)N[C@@H](Cc1ccccc1)C(=O)N[C@@H](CCC(N)=O)C(=O)N[C@@H](CC(N)=O)C(=O)N[C@@H](CCCNC(=N)N)C(=O)N[C@@H](CCCNC(=N)N)C(=O)N[C@@H](CCSC)C(=O)N[C@@H](CCCCN)C(=O)N[C@@H](Cc1c[nH]c2ccccc12)C(=O)N[C@@H](CCCCN)C(=O)N[C@@H](CCCCN)C(=O)NCC(=O)N[C@@H](C)C(=O)N[C@@H](CO)C(=O)N[C@@H](C)C(=O)N[C@@H](Cc1c[nH]cn1)C(=O)N[C@H](C(=O)N[C@H](C(=O)N[C@@H](CCSC)C(=O)N[C@H](C(=O)N[C@@H](CC(=O)O)C(=O)N[C@@H](C)C(=O)N[C@@H](Cc1ccc(O)cc1)C(=O)N[C@@H](CCCCN)C(=O)N1CCC[C@H]1C(=O)N[C@H](C(=O)N[C@@H](CCCCN)C(=O)NCC(=O)O)[C@@H](C)O)C(C)C)C(C)C)[C@@H](C)CC [Penetratin CPP-SpyTag fusion]
CHO-K1 cells [2]
  cytotoxicity of peptides alone, cell viability: some inconsistent cytotoxicity at the highest concentrations

## CC[C@H](C)[C@H](NC(=O)[C@H](Cc1c[nH]cn1)NC(=O)[C@H](C)NC(=O)[C@H](CO)NC(=O)[C@H](C)NC(=O)CNC(=O)[C@H](CCCNC(=N)N)NC(=O)[C@H](CCCNC(=N)N)NC(=O)[C@H](CCCNC(=N)N)NC(=O)[C@H](CCC(N)=O)NC(=O)[C@H](CCCNC(=N)N)NC(=O)[C@H](CCCNC(=N)N)NC(=O)[C@H](CCCCN)NC(=O)[C@H](CCCCN)NC(=O)[C@H](CCCNC(=N)N)NC(=O)CN)C(=O)N[C@H](C(=O)N[C@@H](CCSC)C(=O)N[C@H](C(=O)N[C@@H](CC(=O)O)C(=O)N[C@@H](C)C(=O)N[C@@H](Cc1ccc(O)cc1)C(=O)N[C@@H](CCCCN)C(=O)N1CCC[C@H]1C(=O)N[C@H](C(=O)N[C@@H](CCCCN)C(=O)NCC(=O)O)[C@@H](C)O)C(C)C)C(C)C [TAT-SpyTag fusion]
CHO-K1 cells [2]
  cytotoxicity of peptides alone, LDH release (membrane integrity): no cytotoxic activity
  cytotoxicity of peptides alone, cell viability: no cytotoxic activity

## CC(C)C[C@@H](NC(=O)[C@@H](CC(C)C)NC(=O)[C@@H](CCCCN)NC(=O)[C@@H](CCC(=O)O)NC(=O)[C@@H](CC(C)C)NC(=O)[C@@H](CC(N)=O)NC(=O)[C@@H](C)NC(=O)[C@@H](Cc1ccc(O)cc1)NC(=O)[C@@H](Cc1c[nH]c2ccccc12)NC(=O)[C@@H](CC(N)=O)NC(=O)[C@H](NC(=O)[C@H](CO)NC(=O)[C@H](C)NC(=O)CNC(=O)[C@H](CCCNC(=N)N)NC(=O)[C@H](CCCNC(=N)N)NC(=O)[C@H](CCCNC(=N)N)NC(=O)[C@H](CCC(N)=O)NC(=O)[C@H](CCCNC(=N)N)NC(=O)[C@H](CCCNC(=N)N)NC(=O)[C@H](CCCCN)NC(=O)[C@H](CCCCN)NC(=O)[C@H](CCCNC(=N)N)NC(=O)CN)[C@H](C)O)C(=O)N[C@H](CCCNC(=N)N)C(=O)O [TAT_^DPMIα, GRKKRRQRRRGAStnwyanlekllr, reference compound] (H-GRKKRRQRRRGAS[dT][dN][dW][dY][dA][dN][dL][dE][dK][dL][dL][dR]-OH; N-terminus and C-terminus assumed)
T47D cells [3]
  IC50: 36.6 µM

## GRKKRRQRRR (Amino acid sequence of TAT CPP) [reference compound]
CHO-K1 cells [2]
  cytotoxicity of peptides alone, LDH release (membrane integrity): non-toxic
  cytotoxicity of peptides alone, cell viability: non-toxic
T47D cells [3]
  delivery of DPMIα, comparison of 10 μM peptide treatments: significantly improved compared to DPMIα peptide alone

## KKKKQPPKPKKPKTQEKKKKQPPKPKRGASAHIVMVDAYKPTKGASKKKKQPPKPKKPKTQEKKKKQPPKPKR [dimerised FPP1.1]
T47D cells [1]
  IC50: 6.3 µM

## KKQPPKPKKPKTQEKKKKQPPKPKR (Amino acid sequence of a Sindbis virus capsid-derived CPP (SAR5)) [FPP1-SAR5]
CHO-K1 cells [4]; [5]
  loss/reduction of activity (potency) relative to parental FPP1: 3 fold

## KTQEKKKKQTTKTKKTKTQEKKKKQTTKTKR (Amino acid sequence of a Sindbis virus capsid-derived CPP (1746P_T)) [FPP1-P_T]
CHO-K1 cells [4]; PAP assay, relative to parental FPP1
  effect of truncation or mutation on CPP potency: unaffected

## PLKPKKPKTQEKKKKQPPKPKKPKTQEKKKKQPPKPK (Amino acid sequence of a Sindbis virus capsid-derived CPP (SAR12)) [FPP1-SAR12]
CHO-K1 cells [4]; [5]
  loss/reduction of activity (potency) relative to parental FPP1: approximately 2.2 fold

## PLKPKKPKTQEKKKKQPPKPKKPKTQEKKKKQPPKPKR (Amino acid sequence of a Sindbis virus capsid-derived CPP (SVC27)) [FPP1]
CHO-K1 cells [4]; CPP_SpyT conjugated to SpyC_PAP, resazurin, FIG. 4A
  potency of FPP-delivered PAP conjugate (decrease in CHO-K1 cell viability), order of potency: greatest potency
CHO-K1 cells [4]; FIG. 4A
  cell death caused by SpyC-PAP conjugate: significant cell death
T47D cells [3]
  delivery of DPMIα, comparison of 10 μM peptide treatments: significantly improved delivery compared to TAT
  effect on T47D cell viability of CPP-delivered DPMIα: dose dependent decrease in T47D cell viability

## PLKPKKPKTQEKKKKQPPKPKKPKTQEKKKKQPPKPKRGAS[dT][dN][dW][dY][dA][dN][dL][dE][dK][dL][dL][dR] [FPP1_^DPMIα]
T47D cells [3]
  IC50: 9.1 µM
  effect on T47D cell viability of CPP-delivered DPMIα: significantly more cytotoxic than ^DPMIα alone

## PLRPRRPRTQERRRRQPPRPRRPRTQERRRRQPPRPRR (Amino acid sequence of a Sindbis virus capsid-derived CPP (SAR 17)) [FPP1-SAR17]
CHO-K1 cells [4]; [5]
  loss/reduction of activity (potency) relative to parental FPP1: 1.5 fold

## SpyC only control: SpyCatcher control without CPP [reference compound]
CHO-K1 cells [4]; FIG. 4A
  cell death caused by SpyC-PAP conjugate: no effect

## TLKTKKTKTQEKKKKQTTKTKKTKTQEKKKKQTTKTKR (Amino acid sequence of a Sindbis virus capsid-derived CPP (SAR16 P_T)) [FPP1-SAR16]
CHO-K1 cells [4]; [5]
  improvement of activity relative to full length FPP1: 1.7 fold
